{"source": "patent US6291676A", "about": "“Water-soluble derivatives of camptothecin/homocamptothecin” (priority 2000, dated 2001)", "key": {"topoisomerase I [1]": {"test_system": "topoisomerase I", "test": "Topoisomerase I mediated DNA cleavage (cleavable complex induction)", "type": "biochemical", "settings": "for dose response with respect to inducing DNA fragmentation: FIG. 10; for distribution of cleavage sites vs camptothecin or SN-38 / induction of cleavable complex formation: topoisomerase I; for induction of cleavable complex formation: 3'-32P-labeled oligonucleotide", "description": "(§1) Evaluation of the Relative Abilities of the Novel Polyamine Camptothecin Analogs to Induce Topoisomerase I Mediated DNA Single Strand Breaks. We have evaluated the abilities of the novel compounds of the present invention to inhibit the topoisomerase I enzyme. In these experiments the oligonucleotide was labeled at the 3'-end of the upper (scissile) strand with 32P-α-cordycepin and terminal transferase (Pommier, Y., Kohlhagen, G., Kohn, F., Leteurtre, F., Wani, M. C., and Wall, M. E. Proc. Natl. Acad. Sci. U.S.A. 92:8861-8865, 1995). Topoisomerase I (Top1) cleavage generates a 23mer that can be easily detected by electrophoresis and quantitated by Phosphorimager analysis. Tanizawa et al. (Tanizawa, A., Kohn, K. W., Kohlhagen, G., Leteurtre, F., and Pommier, Y. Biochemistry […]:7200-7206, 1995) have previously shown that camptothecin derivatives differ in the manner in which they stabilize the top1 cleavable complexes that they induce. The novel polyamine camptothecins of the present invention were compared in this assay. 0.35M NaCl was added to force top 1-mediated DNA religation and DNA cleavage was measured at various times after NaCl addition. FIG. 9 is a typical phosphoimager picture showing the timecourse of the effects of various camptothecins on the relaxation of DNA in the presence of topoisomerase I. Topoisomerase I-mediated cleavage generates DNA fragments that can be readily detected by electrophoresis and quantitated by phosphorimager analysis.\nFIG. 10 is a phosphoimager picture showing the dose response of various camptothecin compounds described in the present invention on the relaxation of DNA in the presence of topoisomerase I. Topoisomerase I-mediated cleavage generates DNA fragments that can be readily detected by electrophoresis and quantitated by phosphorimager analysis as shown.\nFIG. 11 contains a phosphoimager picture (bottom figure) showing the dose response effects of several of the novel polyamine camptothecins of the current invention on the relaxation of DNA in the presence of topoisomerase I. Topoisomerase I-mediated cleavage generates DNA fragments that can be readily detected by electrophoresis and quantitated by phosphorimager analysis (top figure)."}, "[2]": {"test": "Fluorescence anisotropy titration: association with electroneutral DMPC vesicles", "type": "physicochemical", "settings": "PBS buffer, pH 7.4, physiological temperature, DMPC", "method": "(§2) Vesicle Preparation. Small unilamellar vesicle (SUV) suspensions were prepared the day of an experiment by the method of Burke et al. (T. G. Burke, A. K. Mishra, M. C. Wani, and M. E. Wall, Lipid Bilayer Partitioning and Stability of Camptothecin Drugs, Biochem., 32(20), 5352 (1993)). Briefly, stock lipid suspensions containing 200 mg/mL lipid in phosphate buffered saline (PBS, pH 7.4) were prepared by Vortex mixing for 5-10 min above the TM of the lipid. The lipid dispersions were then sonicated using a bath-type sonicator (Laboratory Supplies Co., Hicksville, N.Y.) for 3-4 h until they became optically clear. […] Each type of vesicle suspension was annealed for 30 min at 37° C. and then used in an experiment.\n(§3) Fluorescence Instrumentation. Steady-state fluorescence measurements were obtained on a SLM Model 9850 spectrofluorometer with a thermostated cuvette compartment. This instrument was interfaced with an IBM PS/2 model 55 SX computer. Excitation and emission spectra were recorded with an excitation resolution of 8 nm and an emission resolution of 4 nm. In all cases spectra were corrected for background fluorescence and scatter from unlabeled lipids or from solvents by subtraction of the spectrum of a blank. Steady-state fluorescence intensity measurements were made in the absence of polarizers. Steady-state anisotropy (a) measurements were determined with the instrument in the \"T-format\" for simultaneous measurement of two polarized intensities. […] The anisotropy was calculated from a =(IVV -GIVH)/(IVV +2GIVH), where G=IHV /IHH and the subscripts refer to vertical and horizontal orientations of the excitation and emission polarizers, respectively.\n(§4) Anisotropy measurements for camptothecins were conducted using exciting light in the range of 370 nm to 400 nm and long pass filters on each emission channel in order to isolate the drug's fluorescence signal from background scatter and/or residual fluorescence. […] The combination of exciting light and emission filters allowed us to adequately separate fluorescence from background signal. […]"}, "[3]": {"test": "Fluorescence anisotropy titration: association with negatively-charged DMPG vesicles", "type": "physicochemical", "settings": "PBS buffer, pH 7.4, physiological temperature, DMPG", "method": "as §2, §3, §4"}, "[4]": {"test": "Excited-state lifetime of camptothecin", "type": "physicochemical", "settings": "37° C", "method": "We have examined the excited-state lifetime values of camptothecin in PBS, glycerol, and methanol at 37° C. The lifetime values were determined to be 4.7 ns, 3.8 ns, and 3.5 ns, respectively."}, "[5]": {"settings": "cited from earlier work"}, "[6]": {"settings": "aqueous medium; cited from earlier work"}, "topoisomerase I [7]": {"test_system": "topoisomerase I", "test": "Reversal of topoisomerase I cleavable complexes after NaCl addition", "type": "biochemical", "settings": "after 0.35M NaCl; for stability of cleavable complexes: relative to camptothecin and SN-38", "description": "as §1"}}, "note": "Read-outs that look alike come from different tables or passages of the source.", "data": [{"compound": "CC[C@@]1(O)C(=O)OCc2c1cc1n(c2=O)Cc2c-1nc1ccccc1c2CCN=[N+]=[N-]", "note": "[7-(2-azidoethyl)]", "values": [{"measurement": "dose response with respect to inducing DNA fragmentation", "setting": "topoisomerase I [1]", "value": "particularly good dose response"}]}, {"compound": "CC[C@@]1(O)C(=O)OCc2c1cc1n(c2=O)Cc2c-1nc1ccccc1c2CCCCCN=[N+]=[N-]", "note": "[7-(5-azidopentyl)]", "values": [{"measurement": "dose response with respect to inducing DNA fragmentation", "setting": "topoisomerase I [1]", "value": "particularly good dose response"}]}, {"compound": "CC[C@@]1(O)C(=O)OCc2c1cc1n(c2=O)Cc2cc3ccccc3nc2-1", "note": "[Camptothecin]", "values": [{"measurement": "Overall association constant KDMPC", "setting": "[2]", "value": 100, "unit": "M⁻¹"}, {"measurement": "Overall association constant KDMPG", "setting": "[3]", "value": 100, "unit": "M⁻¹"}, {"measurement": "average excited-state lifetime, membrane-bound drug", "setting": "[4]; DMPC bilayers", "value": 3.7, "unit": "ns"}, {"measurement": "excited-state lifetime", "setting": "[4]; PBS", "value": 4.7, "unit": "ns"}, {"measurement": "excited-state lifetime", "setting": "[4]; glycerol", "value": 3.8, "unit": "ns"}, {"measurement": "excited-state lifetime", "setting": "[4]; methanol", "value": 3.5, "unit": "ns"}, {"measurement": "enhancement in the anisotropy value upon binding to vesicles", "setting": "[5]; vesicles of either DMPC or DMPG", "value": 21, "unit": "fold"}, {"measurement": "half-life of lactone ring hydrolysis", "setting": "[6]", "value": "approximately 20 min"}]}, {"compound": "CCc1c2c(nc3ccc(O)cc13)-c1cc3c(c(=O)n1C2)COC(=O)[C@]3(O)CC", "note": "[SN-38, 7-ethyl-10-hydroxycamptothecin, reference compound]", "values": [{"measurement": "reversal of cleavable complexes", "setting": "topoisomerase I [7]; compared with camptothecin", "value": "reversed more slowly than those induced by camptothecin"}]}, {"compound": "CC[C@@]1(O)C(=O)OCc2c1cc1n(c2=O)Cc2c-1nc1ccccc1c2CCCNC(=N)N", "note": "[compound #8]", "values": [{"measurement": "distribution of cleavage sites vs camptothecin or SN-38", "setting": "topoisomerase I [1]", "value": "comparable to those generated by camptothecin or 7-ethyl-10-hydroxycamptothecin (SN-38)"}, {"measurement": "induction of cleavable complex formation", "setting": "topoisomerase I [1]", "value": "good inducers of cleavable complex formation"}, {"measurement": "stability of cleavable complexes", "setting": "topoisomerase I [7]", "value": "intermediate stabilities between camptothecin and SN-38"}]}, {"compound": "CC[C@@]1(O)C(=O)OCc2c1cc1n(c2=O)Cc2c-1nc1ccccc1c2CCNC(=N)N", "note": "[compound #9]", "values": [{"measurement": "distribution of cleavage sites vs camptothecin or SN-38", "setting": "topoisomerase I [1]", "value": "comparable to those generated by camptothecin or 7-ethyl-10-hydroxycamptothecin (SN-38)"}, {"measurement": "induction of cleavable complex formation", "setting": "topoisomerase I [1]", "value": "good inducers of cleavable complex formation"}, {"measurement": "stability of cleavable complexes", "setting": "topoisomerase I [7]", "value": "intermediate stabilities between camptothecin and SN-38"}]}, {"compound": "CC[C@@]1(O)C(=O)OCc2c1cc1n(c2=O)Cc2cc3c(CN(C)C)c(O)ccc3nc2-1", "note": "[topotecan]", "values": [{"measurement": "steady-state fluorescence anisotropy (a)", "setting": "[5]; PBS", "value": 0.008}, {"measurement": "increase of anisotropy value vs PBS", "setting": "[5]; glycerol", "value": 40, "unit": "fold"}, {"measurement": "increase of anisotropy value vs PBS", "setting": "[5]; octanol", "value": 9, "unit": "fold"}]}]}
